Like-named read-outs stand apart in the source and are kept apart here.

Usually inhibition stands for the percentage by which the read-out fell short of the control.

The test system of this experiment is TGFβ signal. Nature of the experiment: TGFβ signal inhibitory activity, (SBE)4-Luc reporter in A549 cells (Test Examples 1A and 1B). It counts as cell-based, human. To be noted: Homo sapiens, A549, read-out: TGFβ inhibition rate, %; for inhibition at 1 µM: test compound 1 µM. A digest of the protocol:
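Compounds at 3 µM and 10 µM (some 1 µM) were added with 2 ng/ml TGFβ-1 to A549 cells stably expressing an SBE-driven luciferase, then cultured 4 hr. Chemiluminescent luciferase signal gave % inhibition versus TGFβ-alone and no-TGFβ controls.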

[1] abbreviates: test compound 3 µM, Reference Examples, Table 1B.
The mark [2] stands for this setting: test compound 10 µM, Reference Examples, Table 1B.
Where [3] appears, read: 3 µM, compounds of Reference Examples (Test Example 1B).
The mark [4] stands for this setting: 10 µM, compounds of Reference Examples (Test Example 1B).
[5] abbreviates: test compound 3 µM, TGFβ-1 2 ng/ml, 4 hr, Table 1A.
[6] abbreviates: test compound 10 µM, TGFβ-1 2 ng/ml, 4 hr, Table 1A.

As for `CCOC(=O)c1cc(OC)ccc1Oc1ccnc2cc(OC)c(OC)cc12` [Compound r91], the inhibition at 3 µM under setting [1] stood at 96%. Besides, the inhibition at 10 µM under setting [2] came out at 100%.

Consider `COc1cc2nccc(Oc3cc4ccccc4cc3C(=O)Oc3ccccc3)c2cc1OC` [Compound r102], for which, under setting [1], the inhibition at 3 µM was determined as 33%. Under setting [2], the inhibition at 10 µM was 95%. `COc1ccc(Oc2ccnc3cc(OC)c(OC)cc23)c(C(=O)NC(C)C)c1` [Compound r111]: the inhibition at 3 µM under setting [1] came out at 29%. Also, the inhibition at 10 µM under setting [2] amounted to 92%. The matching figures for `COc1cc2c(Oc3ccc(C)cc3C(=O)c3ccccc3)ccnc2cc1OCC(O)CN1CCC(CO)CC1` (centres unmarked) [r154]: 99% and 100%. On to `COc1cc2nccc(Nc3cnc4ccccc4c3)c2cc1OC` [r418], for which the inhibition at 3 µM under setting [3] was 46%. In addition, under setting [4], the inhibition at 10 µM is 73%. Turning to `COc1cc2c(Oc3ccc(C)cc3C(=O)c3ccccc3)ccnc2cc1OCC1CO1` (centres unmarked) [Compound r151], under setting [1], the inhibition at 3 µM was 95%. For the same compound, under setting [2], the inhibition at 10 µM was found to be 100%. `Cc1cc(Oc2ccnc3ccc(-c4cccc(O)c4)cc23)c(-c2ccccn2)nc1C` [Compound 11, 3-[4-(5,6-Dimethyl-[2,2']bipyridin-3-yloxy)-quinolin-6-yl]-phenol]: the inhibition at 3 µM under setting [5] was found to be 100%. Under setting [6], the inhibition at 10 µM was found to be 100%.

Regarding `COc1cc2nccc(Oc3ccc(C(=O)c4cccc(C)c4)cc3)c2cc1OC` [r78], the inhibition at 3 µM under setting [1] amounted to 0%. For the same compound, the inhibition at 10 µM under setting [2] turned out to be 57%. For the compound `CCOc1cccc(-c2nc(C)ccc2Oc2ccnc3cc(OC)c(OC)cc23)c1` [Compound r239], the inhibition at 3 µM under setting [3] came out at 83%. Moreover, under setting [4], the inhibition at 10 µM is 100%.

In the case of `c1ccc(-c2nc3ncccc3cc2Oc2ccnc3ccsc23)cc1` [Compound 71, 2-Phenyl-3-(thieno[3,2-b]pyridin-7-yloxy)-[1,8]naphthyridine], under setting [5], the inhibition at 3 µM came out at 93%. Besides, the inhibition at 10 µM under setting [6] was found to be 100%. As for `COc1cc2nccc(Oc3ccc4c(ccn4C(C)=O)c3)c2cc1OC` [Compound r21], the inhibition at 3 µM under setting [1] came to 16%. The inhibition at 10 µM under setting [2] is 71%. For the compound `COc1cc2c(Oc3cc(C)c(C)nc3-c3ccccn3)ccnc2cc1Cl` [Compound 105, 3-(7-Chloro-6-methoxy-quinolin-4-yloxy)-5,6-dimethyl-[2,2']bipyridine], the inhibition at 3 µM under setting [5] is 100%. The inhibition at 10 µM under setting [6] turned out to be 100%. As for `COc1cc2nccc(Oc3cc(C)nc4ccc(F)cc34)c2cc1OC` [Compound r308], under setting [3], the inhibition at 3 µM came to 21%. Further, the inhibition at 10 µM under setting [4] stood at 56%. With `COc1cc2c(Oc3ccc(C)cc3C(=O)c3ccccc3)ccnc2cc1OCCCN1CCNCC1` [r137], under setting [1], the inhibition at 3 µM was determined as 100%. Moreover, the inhibition at 10 µM under setting [2] turned out to be 100%.

For the compound `Cc1cc(Oc2ncnc3scc(C)c23)c(-c2ccccn2)nc1C` [Compound 34, 5,6-Dimethyl-3-(5-methyl-thieno[2,3-d]pyrimidin-4-yloxy)-[2,2'] bipyridine], the inhibition at 3 µM under setting [5] came out at 94%. For the same compound, the inhibition at 10 µM under setting [6] was 100%. With `COc1cc2nccc(Oc3cc(C)c(C)nc3-c3ncccn3)c2cc1F` [Compound 158, 4-(5,6-Dimethyl-2-pyrimidin-2-yl-pyridin-3-yloxy)-6-fluoro-7-methoxy-quinoline], under setting [5], the inhibition at 3 µM is 98%. For the same compound, the inhibition at 10 µM under setting [6] came out at 100%. For the compound `COc1cc2nccc(Oc3ccc(C)nc3-c3ccc(CO)cc3)c2cc1OC` [Compound r245], the inhibition at 3 µM under setting [3] was 80%. In addition, the inhibition at 10 µM under setting [4] stood at 99%. `COc1cc2nccc(Oc3cc4ccccc4cc3C(=O)Nc3cccc4ccccc34)c2cc1OC` [r114]: the inhibition at 3 µM under setting [1] is 0%. Also, the inhibition at 10 µM under setting [2] came to 96%. As for `COc1cc2c(Oc3cc4ccccc4nc3C)ccnc2cc1OCCCN` [Compound r376], the inhibition at 3 µM under setting [3] was 100%. Further, the inhibition at 10 µM under setting [4] was determined as 100%. In the case of `COc1cc2c(Oc3cc(C)c(C)nc3-c3cccnc3)ccnc2cc1OCCCO` [Compound r347], under setting [3], the inhibition at 3 µM came out at 100%.

For `COc1cccc(-c2nc3ncccc3cc2Oc2ccnc3cc(OC)c(OC)cc23)c1` [Compound 81, 3-(6,7-Dimethoxy-quinolin-4-yloxy)-2-(3-methoxy-phenyl)-[1,8] naphthyridine], under setting [5], the inhibition at 3 µM turned out to be 97%. For the same compound, under setting [6], the inhibition at 10 µM amounted to 100%. For the compound `COc1cc2nccc(Oc3cc4cncnc4cc3C)c2cc1OC` [Compound r305, 6-(6,7-Dimethoxy-quinolin-4-yloxy)-7-methyl-quinazoline], the inhibition at 3 µM under setting [3] was 28%. In addition, the inhibition at 10 µM under setting [4] was found to be 64%. The matching figures for `COc1cc2nccc(Oc3cc(C)c(SC)cc3C(C)=O)c2cc1OC` [Compound r186]: 76% and 100%.

As to `COc1cc2nccc(Oc3ccc(C)cc3C(=O)C(C)(C)C)c2cc1OC` [Compound r54], the inhibition at 3 µM under setting [1] amounted to 13%. The inhibition at 10 µM under setting [2] is 73%. For `COc1cc2nccc(Oc3ccccc3C(=O)OCCC(C)C)c2cc1OC` [Compound r99] the same measures were 7% and 92%.

Consider `COc1cc2nccc(Oc3ccc(C)nc3-c3cc(C)nn3C)c2cc1OC` [Compound r257], for which the inhibition at 3 µM under setting [3] was determined as 15%. Besides, under setting [4], the inhibition at 10 µM came out at 62%. Turning to `COc1cc2c(Oc3ccc(C)cc3C(=O)c3ccccc3)ccnc2cc1OCCN1CCC(CO)CC1` [Compound r126], the inhibition at 3 µM under setting [1] stood at 100%. Under setting [2], the inhibition at 10 µM is 100%. As for `COc1cc2c(Oc3ccc(C)cc3C(=O)c3ccccc3)ccnc2cc1OCCCCl` [Compound r132], the inhibition at 3 µM under setting [1] came to 72%. The inhibition at 10 µM under setting [2] amounted to 99%. In the case of `Cc1cc(Oc2ccnc3ccc(-c4cccnc4)cc23)c(-c2ccccn2)nc1C` [Compound 6, 5,6-Dimethyl-3-(6-pyridin-3-yl-quinolin-4-yloxy)-[2,2']bipyridine], the inhibition at 3 µM under setting [5] is 100%. The inhibition at 10 µM under setting [6] is 100%.

For the compound `COc1cc2nccc(Oc3ccc(C)nc3-c3cccc(C)c3)c2cc1OC` [Compound r229], the inhibition at 3 µM under setting [3] is 99%. Besides, under setting [4], the inhibition at 10 µM worked out at 100%. Turning to `CCc1ccc(Oc2ccnc3cc(OC)c(OC)cc23)c(-c2ccccn2)n1` [Compound 37, 3-(6,7-Dimethoxy-quinolin-4-yloxy)-6-ethyl-[2,2']bipyridine], where the note is “TGFβ-1 2 ng/ml, 4 hr, Table 1A”, the inhibition at 1 µM was 98%. Besides, under setting [5], the inhibition at 3 µM turned out to be 100%. For the compound `COc1cc2c(Oc3cc(C)c(C)nc3-c3nc(C)c(C)s3)ccnc2cc1OCCCO` [Compound r462], the inhibition at 3 µM under setting [3] was determined as 99%. Take `CCc1ccc(Oc2ccnc3cc(C(C)(C)C)sc23)c(-c2ccccn2)n1` [Compound 180, 3-(2-Tert-butyl-thieno[3,2-b]pyridin-7-yloxy)-6-ethyl-[2,2']bipyridine]: the inhibition at 3 µM under setting [5] is 74%. Besides, the inhibition at 10 µM under setting [6] is 98%.

On to `COc1cc2nccc(Oc3ccc(C)nc3/C=C/c3ccccc3)c2cc1OC` [r216], for which the inhibition at 3 µM under setting [3] was 22%. Moreover, the inhibition at 10 µM under setting [4] was determined as 73%. With `Cc1ccc(Oc2ccnc3ccc(OCC4CCC4)cc23)c(-c2ncccn2)n1` [Compound 213, 6-Cyclobutylmethoxy-4-(6-methyl-2-pyrimidin-2-yl-pyridin-3-yloxy)-quinoline], the inhibition at 3 µM under setting [5] worked out at 98%.

As to `CCC(=O)c1ccc(OC)cc1Oc1ccnc2cc(OC)c(OC)cc12` [r44], under setting [1], the inhibition at 3 µM worked out at 97%. Also, under setting [2], the inhibition at 10 µM was found to be 100%. As to `COc1cc2nccc(Oc3cc4cccnc4nc3-c3ccc(F)cc3)c2cc1OC` [Compound 83, 3-(6,7-Dimethoxy-quinolin-4-yloxy)-2-(4-fluoro-phenyl)-[1,8]naphthyridine], the inhibition at 3 µM under setting [5] came out at 92%. Also, the inhibition at 10 µM under setting [6] was 99%. `COc1cc2nccc(Oc3ccc(C)cc3C(=O)c3ccc(OCCN4CCOCC4)cc3)c2cc1OC` [Compound r191]: under setting [3], the inhibition at 3 µM was 39%. In addition, under setting [4], the inhibition at 10 µM stood at 93%. Consider `Cc1cc(Oc2ccnc3ccc(-c4ccc(O)cc4)cc23)c(-c2ccccn2)nc1C` [Compound 12, 4-[4-(5,6-Dimethyl-[2,2']bipyridin-3-yloxy)-quinolin-6-yl]-phenol], for which the inhibition at 3 µM under setting [5] is 100%. Further, the inhibition at 10 µM under setting [6] turned out to be 100%. Regarding `COc1cc2nccc(Oc3ccc(C)nc3-c3ccccn3)c2cc1OC` [r261], the inhibition at 3 µM under setting [3] was determined as 100%. Also, the inhibition at 10 µM under setting [4] was 100%. In the case of `CCCCC(=O)c1cc(C)ccc1Oc1ccnc2cc(OC)c(OC)cc12` [Compound r52], under setting [1], the inhibition at 3 µM was 97%. For the same compound, the inhibition at 10 µM under setting [2] amounted to 100%. With `COc1cc2nccc(Oc3cc(C)c(C)nc3-c3ncccc3C)c2cc1OC` [r429], under setting [3], the inhibition at 3 µM was 52%. In addition, the inhibition at 10 µM under setting [4] was determined as 94%. In the case of `CCC(=O)c1cc(Cl)ccc1Oc1ccnc2cc(OC)c(OC)cc12` [r46], the inhibition at 3 µM under setting [1] turned out to be 70%. Moreover, the inhibition at 10 µM under setting [2] was determined as 100%.

For `c1ccc(-c2cc3nccc(Oc4cc5cccnc5nc4-c4ccccc4)c3s2)cc1` [Compound 72, 2-Phenyl-3-(2-phenyl-thieno[3,2-b]pyridin-7-yloxy)-[1,8]naphthyridine], the inhibition at 1 µM (TGFβ-1 2 ng/ml, 4 hr, Table 1A) is 81%. Moreover, under setting [5], the inhibition at 3 µM amounted to 99%.

Turning to `COc1cc2c(Oc3cc(C)c(C)cc3C(C)=O)ccnc2cc1OCCn1ccnc1` [Compound r317], the inhibition at 3 µM under setting [3] was found to be 100%. Also, under setting [4], the inhibition at 10 µM stood at 100%. As to `CCCOC(=O)c1cc2ccccc2cc1Oc1ccnc2cc(OCCCl)c(OC)cc12` [Compound r322], the inhibition at 3 µM under setting [3] is 50%. For the same compound, the inhibition at 10 µM under setting [4] is 88%.
